Where a name gives a salt, the structure may show the parent alone.
How the values were obtained:
serotonin 1A receptor = molecular target: T1, serotonin 1A receptor (Rattus norvegicus, UniProt P19327); test: Binding test on [3H] 8-hydroxy-dipropylaminotetralin, hippocampus receptor fraction; design: species or system SD rats; conditions: rat hippocampus receptor fraction, 0.5 nM [3H] 8-OH-DPAT, room temperature 30 min; read-out: 5HT1
T1 construct: To the receptor fraction of the hippocampus were added a test compound and 0.5 nM of [^3H]; 8-hydroxy-dipropylaminotetralin; from tissue; host or cells: rat hippocampus membrane fraction
T1 sequence (P19327 1-422): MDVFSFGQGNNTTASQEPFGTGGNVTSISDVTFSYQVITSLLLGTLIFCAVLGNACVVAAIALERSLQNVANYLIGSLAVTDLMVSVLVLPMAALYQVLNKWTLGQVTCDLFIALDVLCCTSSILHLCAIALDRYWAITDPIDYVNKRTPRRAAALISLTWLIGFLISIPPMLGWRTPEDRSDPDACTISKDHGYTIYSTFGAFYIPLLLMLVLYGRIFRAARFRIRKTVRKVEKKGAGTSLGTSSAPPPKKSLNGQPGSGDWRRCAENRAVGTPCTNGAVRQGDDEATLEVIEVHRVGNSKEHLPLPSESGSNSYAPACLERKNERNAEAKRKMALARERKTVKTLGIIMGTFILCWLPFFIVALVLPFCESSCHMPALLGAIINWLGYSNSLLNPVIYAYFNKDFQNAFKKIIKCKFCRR

serotonin 2 receptor = molecular target: T2, serotonin 2 receptor (Rattus norvegicus, UniProt P14842); test: Binding test on [3H] ketanserin, cerebral cortex receptor fraction; design: species or system SD rats; conditions: 0.3 nM [3H] ketanserin, 37° C. 15 min, read-out: 5HT2
T2 construct: To the receptor fraction of the cerebral cortex were added a test compound and 0.3 nM of [^3H] ketanserin; from tissue; host or cells: rat cerebral cortex membrane fraction
T2 sequence (P14842 whole entry): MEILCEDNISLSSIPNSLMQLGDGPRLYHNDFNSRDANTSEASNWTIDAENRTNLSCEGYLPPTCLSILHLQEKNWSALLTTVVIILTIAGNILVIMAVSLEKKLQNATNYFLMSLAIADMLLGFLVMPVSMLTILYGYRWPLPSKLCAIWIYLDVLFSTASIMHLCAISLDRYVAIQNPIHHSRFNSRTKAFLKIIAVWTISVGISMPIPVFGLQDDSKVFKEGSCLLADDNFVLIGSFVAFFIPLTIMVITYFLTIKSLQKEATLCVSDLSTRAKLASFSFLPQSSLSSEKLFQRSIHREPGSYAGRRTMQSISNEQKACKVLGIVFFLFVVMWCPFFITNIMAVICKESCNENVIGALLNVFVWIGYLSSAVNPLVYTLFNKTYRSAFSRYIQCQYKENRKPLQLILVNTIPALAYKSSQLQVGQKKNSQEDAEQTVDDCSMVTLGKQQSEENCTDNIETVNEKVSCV

Ki (serotonin 1A receptor)	Ki (serotonin 2 receptor)	Structure (SMILES)
9.15 nM	12.7 nM	CCN1CCN(c2nc(-c3ccc(OCCO)cc3)cc3ccoc23)CC1 [Example 301, 7-(1-Ethylpiperazin-4-yl)-5-[4-(2-hydroxyethoxy)phenyl]furo[2,3-c]pyridine oxalate]
2 nM	1.5 nM	CCC(C)NS(=O)(=O)c1ccc(-c2cc3ccccc3c(N3CCN(CC)CC3)n2)cc1 (centres unmarked) [Example 360, 1-(4-ethylpiperazin-1-yl)-3-{4-[N-(1-methylpropyl)sulfamoyl]phenyl}isoquinoline dihydrochloride]
1.98 nM	28.5 nM	CCN1CCN(c2nc(-c3ccc(CCCO)cc3)cc3ccsc23)CC1 [Example 432, 7-(4-ethylpiperazin-1-yl)-5-[4-(3-hydroxypropyl)phenyl]thieno[2,3-c]pyridine hydrochloride]
160 nM	0.45 nM	COc1ccc(-c2cc3ccsc3c(N3CCN(CCO)CC3)n2)cc1 [Example 276, 5-(4-methoxyphenyl)-7-[4-(2-hydroxyethyl)piperazin-1-yl]thieno[2,3-c]pyridine hydrochloride]
0.9 nM	0.7 nM	CCCS(=O)(=O)NCc1ccc(-c2cc3ccccc3c(N3CCN(CC)CC3)n2)cc1Cl [Example 92, 3-(3-Chloro-4-propylsulfonylaminomethylphenyl)-1-(4-ethylpiperazin-1-yl)isoquinoline Hydrochloride]
75.4 nM	40 nM	CCN1CCN(c2nc(-c3ccc(C(O)CC(C)C)cc3)cc3ccsc23)CC1 (centres unmarked) [Example 255, 7-(1-ethylpiperazin-4-yl)-5-[4-(1-hydroxy-3-methylbutyl)phenyl]thieno[2,3-c]pyridine Dihydrochloride]
60.1 nM	33.5 nM	CCN1CCN(c2nc(-c3ccc(N)cc3)cc3ccccc23)CC1 [Example 65, 3-(4-Aminophenyl)-1-(4-Ethylpiperazin-1-Yl)Isoquinoline Hydrochloride]
1.1 nM	15.1 nM	CCCNS(=O)(=O)Cc1ccc(-c2cc3ccccc3c(N3CCN(CC)CC3)n2)cc1 [Example 81, 3-(4-Propylaminosulfonylmethylphenyl)-1-(4-Ethylpiperazin-1-Yl)Isoquinoline Hydrochloride]
7.7 nM	10 nM	CCN1CCN(c2nc(-c3ccc(S(=O)(=O)N4CCOCC4)cc3)cc3ccccc23)CC1 [Example 75, 3-[(4-Morpholinyl)Sulfonylphenyl]-1-(4-Ethylpiperazin-1-Yl)Isoquinoline Hydrochloride]
12.9 nM	1.5 nM	CCN1CCN(c2nc(-c3ccc(N4CCC(OC)CC4)nc3)cc3ccccc23)CC1 [Example 153, 1-(4-ethylpiperazin-1-yl)-3-[2-(4-methoxypiperidin-1-yl)pyridin-5-yl]isoquinoline trihydrochloride]
14.2 nM	7.3 nM	CCN1CCN(c2nc(-c3ccc(CC(C)(C)CO)cc3)cc3ccccc23)CC1 [Example 389, 1-(4-Ethylpiperazin-1-yl)-3-[4-(3-Hydroxy-2,2-Dimethylpropyl)Phenyl]Isoquinoline Oxalate]
91 nM	0.01 nM	CCN1CCN(c2nc(-c3ccc(OCC(C)(C)O)cc3)cc3ccccc23)CC1 [Example 309, 1-(1-ethylpiperazin-4-yl)-3-[4-(2-hydroxy-2-methylpropoxy)phenyl]isoquinoline dihydrochloride]
4.7 nM	21.9 nM	CCN1CCN(c2nc(-c3cnc(CCCO)s3)cc3ccccc23)CC1 [Example 171, 1-(1-ethylpiperazin-4-yl)-3-[2-(3-hydroxypropyl)thiazol-5-yl]isoquinoline oxalate]
67.8 nM	0.54 nM	CCN1CCN(c2nc(-c3ccc(OCC(C)(C)O)cc3)cc3ccsc23)CC1 [Example 260, 7-(1-Ethylpiperazin-4-yl)-5-[4-(2-hydroxy-2-methylpropoxy)phenyl]thieno[2,3-c]pyridine dihydrochloride]
129 nM	132 nM	CCN1CCN(c2nc(C(C)c3ccc(OC)cc3)cc3ccccc23)CC1 (stereo not drawn) [Example 102, 3-[α-Methyl-(4-methoxybenzyl)]-1-(4-ethylpiperazin-1-yl)isoquinoline Oxalate]
0.56 nM	1.9 nM	CCN1CCN(c2nc(-c3ccc(CNS(=O)(=O)CC)cc3)cc3ccccc23)CC1 [Example 78, 3-(4-Ethylsulfonylaminomethylphenyl)-1-(4-Ethylpiperazin-1-Yl)Isoquinoline Hydrochloride]
21.8 nM	0.72 nM	CCN1CCN(c2nc(-c3ccc(CCC(C)O)cc3)cc3ccsc23)CC1 (centres unmarked) [Example 440, 7-(4-ethylpiperazin-1-yl)-5-[4-(3-hydroxybutyl)phenyl]thieno[2,3-c]pyridine dihydrochloride]
20.8 nM	75.7 nM	CCN1CCN(c2nc(-c3cc(OCCO)cc(OCCO)c3)cc3ccccc23)CC1 [Example 38, 3-[3,5-di(2-hydroxyethoxy)phenyl]-1-(4-ethylpiperazin-1-yl)isoquinoline hydrochloride]
5.5 nM	0.52 nM	CCN1CCN(c2nc(/C=C/c3ccc(CS(C)(=O)=O)cc3)cc3ccccc23)CC1 [Example 203, 3-[(E)-2-(4-Methylsulfonylmethylphenyl)Ethenyl]-1-(4-Ethylpiperazin-1-Yl)Isoquinoline Oxalate]
33.1 nM	0.98 nM	CCN1CCN(c2nc(/C=C/c3ccc(N4CCOCC4)cc3)cc3ccccc23)CC1 [Example 205, 3-{(E)-2-[4-(4-Morpholinyl)Phenyl]Ethenyl}-1-(4-Ethylpiperazin-1-Yl)Isoquinoline Oxalate]
21.5 nM	0.7 nM	CCN1CCN(c2nc(-c3ccc(CCC(C)(C)O)cc3)cc3ccccc23)CC1 [Example 388, 1-(4-Ethylpiperazin-1-yl)-3-[4-(3-Hydroxy-3-Methylbutyl)Phenyl]Isoquinoline Dihydrochloride]
28.4 nM	0.78 nM	CCN1CCN(c2nc(-c3ccc(OC[C@@H](C)O)cc3)cc3ccccc23)CC1 [Example 403, 1-(4-ethylpiperazin-1-yl)-3-[4-(2-hydroxypropoxy)phenyl]isoquinoline Dihydrochloride]
13.9 nM	12.1 nM	CCN1CCN(c2nc(-c3ccc4c(c3)OCCO4)cc3ccccc23)CC1 [Example 332, 1-(4-ethylpiperazin-1-yl)-3-(3,4-ethylenedioxyphenyl)isoquinoline dihydrochloride]
35.9 nM	2.96 nM	CCN1CCN(c2nc(/C=C/c3ccc(S(C)(=O)=O)cc3)cc3ccccc23)CC1 [Example 201, 3-[(E)-2-(4-Methylsulfonylphenyl)Ethenyl]-1-(4-Ethylpiperazin-1-Yl)Isoquinoline Hydrochloride]
34.7 nM	13.3 nM	CCN1CCN(c2nc(-c3ccc(N4CCC(O)CC4)cc3)cc3ccccc23)CC1 [Example 97, 1-(4-Ethylpiperazin-1-yl)-3-[4-(4-hydroxypiperidin-1-yl)phenyl]isoquinoline Trihydrochloride]
58 nM	12.7 nM	CCN1CCN(c2nc(-c3ccc4c(c3)OCO4)cc3ccccc23)CC1 [Example 46, 3-(3,4-Methylenedioxyphenyl)-1-(4-Ethylpiperazin-1-Yl)Isoquinoline Hydrochloride]
3.27 nM	3.8 nM	CCN1CCN(c2nc(/C=C/c3cccc(OCCO)c3)cc3ccccc23)CC1 [Example 199, 1-(1-Ethylpiperazin-4-Yl)-3-(Trans-2-(3-(2-Hydroxyethoxy)Phenyl]Ethenyl]isoquinoline Oxalate]
23 nM	35 nM	CCN1CCN(c2nc(-c3ccc(OC)c(OC)c3)cc3ccccc23)CC1 [Example 14, 3-(3,4-dimethoxyphenyl)-1-(4-ethylpiperazin-1-yl)isoquinoline Dihydrochloride]

Structure (SMILES)	Ki (serotonin 1A receptor)	Ki (serotonin 2 receptor)
CCN1CCN(c2nc(-c3ccc(C(C)(C)CCO)cc3)cc3ccccc23)CC1 [Example 390, Oxalate]	7.5 nM	11.1 nM
CCC#Cc1ccc(-c2cc3ccccc3c(N3CCN(CC)CC3)n2)cn1 [Example 146, 1-(1-ethylpiperazin-4-yl)-3-[2-(1-butyn-1-yl)pyridin-5-yl]isoquinoline]	170 nM	2.9 nM
CCN1CCN(c2nc(Cc3ccccc3)cc3ccccc23)CC1 [Example 419, 1-(4-ethylpiperazin-1-yl)-3-benzylisoquinoline]	94.8 nM	16.4 nM
CCN1CCN(c2nc(-c3ccc(C(C)(C)O)cc3)cc3ccccc23)CC1 [Example 345, 1-(4-ethylpiperazin-1-yl)-[4-(1-hydroxy-1-methylethyl)phenyl]isoquinoline]	11.3 nM	1.4 nM
CCN1CCN(c2nc(CCc3ccc(OC)cc3)cc3ccccc23)CC1 [Example 106, 1-(1-Ethylpiperazin-4-yl)-3-(4-methoxyphenethyl)isoquinoline]	70 nM	30.6 nM
CCN1CCN(c2nc(-c3ccc(S(C)(=O)=O)nc3)cc3ccccc23)CC1 [Example 129, 3-[(2-Methylsulfonylpyridin)-5-yl]-1-(4-Ethylpiperazin-1-yl)Isoquinoline Hydrochloride]	21.6 nM	18.4 nM
